Legend:
[1] = Beagle test of sustained release capsules (oral) versus intravenous administration; type: in vivo; conditions: beagles, orally administrated sustained release capsule
Method: The blood samples were collected separately at 0.25, 0.5, 1, 2, 4, 6, 8, 12, 16 and 24 hours after drug administration.

[2] = tested on: human liver cells S9; assay: Metabolism in human liver cells S9 to form the active component compound III; type: in vitro ADME; conditions: conversion to compound III, human liver S9, 1 mM NADPH, 37° C.
From the text: Then the mixture was quenched with concentrated perchloric acid. After the precipitated proteins was removed by centrifuge, the supernatant was adjusted with concentrated potassium phosphate until pH was 3, and centrifuged again. The supernatant was directly injected into HPLC and analyzed.

conversion into compound III in vivo [1]	Metabolic rate (%) of compounds in liver cells within 2 hours [2]	SMILES
quickly converted		COc1ccc(C(=O)Oc2ccc(C(CN(C)C)C3(O)CCCCC3)cc2)cc1.O=C(O)CCC(=O)O (centres unmarked) [4-[2-dimethylamino-1-(1-hydroxycyclohexyl)-ethyl]phenyl 4-methoxybenzoate succinate]
quickly converted		CN(C)CC(c1ccc(OC(=O)c2ccccc2)cc1)C1(O)CCCCC1.Cl (centres unmarked) [4-[2-dimethylamino-1-(1-hydroxycyclohexyl)-ethyl]phenyl benzoate hydrochloride]
	96%	CN(C)CC(c1ccc(OC(=O)c2ccccc2)cc1)C1(O)CCCCC1 (centres unmarked) [Compound 2 of Example 1, 4-[2-dimethylamino-1-(1-hydroxycyclohexyl)-ethyl]phenyl Benzoate]
	92%	COc1ccc(C(=O)Oc2ccc(C(CN(C)C)C3(O)CCCCC3)cc2)cc1 (centres unmarked) [Compound 3 of Example 1, 4-[2-dimethylamino-1-(1-hydroxycyclohexyl)-ethyl]phenyl 4-methoxybenzoate]
	88%	CN(C)CC(c1ccc(OC(=O)c2ccc(F)cc2)cc1)C1(O)CCCCC1 (centres unmarked) [Compound 4 of Example 1, 4-[2-dimethylamino-1-(1-hydroxycyclohexyl)-ethyl]phenyl 4-fluorobenzoate]
